Experimental data as given in US9649266B2 (priority 2014, dated 2017).
Like-named read-outs stand apart in the source and are kept apart here.

Assays:
oily skin = details: 1% solution on face twice a day, after a month
enlarged skin pores = details: 0.1% gel on face twice a day, after a month
sebum production = details: for reduction in sebum production (as assessed by the Sebotape): 2% memantine lotion twice daily on back skin, vs pre-treatment or control region; for health of the skin in treatment region: 2% memantine lotion twice daily
acne = details: 0.5% cream on face twice a day, after three months

OC(CCN1CCCCC1)(c1ccccc1)C1CC2C=CC1C2 (stereo not shown) [biperiden]
appearance of skin oiliness (oily skin): much less oily | visible unwanted side-effects regarding skin (oily skin): no other visible unwanted side-effects

CNC1(C)C2CCC(C2)C1(C)C (stereo not shown) [mecamylamine]
appearance of skin pores (enlarged skin pores): smaller in diameter | visible unwanted side-effects regarding skin (enlarged skin pores): no other visible unwanted side-effects

CC12CC3CC(C)(C1)CC(N)(C3)C2 [memantine]
reduction in sebum production (as assessed by the Sebotape) (sebum production; after five days): > 50% | reduction in sebum production (as assessed by the Sebotape) (sebum production; after six days): > 50% | health of the skin in treatment region (sebum production; after five days): healthy skin | health of the skin in treatment region (sebum production; after six days): healthy skin | appearance of acne (acne): less visible | visible unwanted side-effects regarding skin (acne): no other visible unwanted side-effects
